Values joined by “and” are separate entries in the source; they are usually repeats but may differ in a detail not shown here. Equal values may be shown once.
How the values were obtained:
[1] = system: other human cytochromes P450; conditions: Crespi et al. 1997; cited from earlier work
CYP2D6 [2] = conditions: Crespi et al. 1997; cited from earlier work
CYP2D6 [3] = target: T1, CYP2D6 (Homo sapiens, UniProt P10635); assay: biochemical
Experimental: The substrates, compounds of Formula I, were prepared in pH 7.4 potassium phosphate buffer or acetonitrile. […] The 12 wells in a row were used for one test. Wells 1 to 8 contained serial 1:3 dilutions of the inhibitors. Wells 9 and 10 contained no inhibitor and rows 11 and 12 were blanks for background fluorescence (stop solution added before the enzyme). After substrate and inhibitor addition, the plates were prewarmed to 37° C. Incubations were initiated by the addition of prewarmed enzyme and cofactors. […] Data was exported and analyzed using an Excel spreadsheet.

[4] = system: panel of human P450 enzymes; assay: Selectivity in a panel of cDNA-expressed P450 enzymes (dealkylation); format: biochemical; conditions: FIGS. 1, 2, and 3
Experimental: The selectivity of various P450 isoforms for dealkylation of compounds Ia, Ib and Ic was examined using a panel of commercially available human cDNA-expressed enzymes. A substrate that is selective for a single P450 isoform (substrate is catalytically turned over by a single P450 isoform) is a desirable trait in that its activity may be examined within a heterogeneous mixture of enzymes, for example, in human liver microsomes.
Example Compounds Ia, Ib and Ic. Compounds Ia, Ib and Ic were incubated as described in the examples (1) above except that the enzyme source consisted of one each of several different commercially available, baculovirus/insect cell expressed human cytochrome P450 enzymes (SUPERSOME®, GENTEST Corporation).

CYP2D6 [5] = target: T1, CYP2D6; assay: Enzyme kinetics with cDNA-expressed CYP2D6 (fluorometric); format: biochemical; design: purchased GENTEST Corporation P217; host or cells: baculovirus/insect cell (SUPERSOMES)
Experimental: (§1) The evaluation of compounds of Formula I were initially performed by measuring the kinetics of turnover using cDNA-expressed CYP2D6. Vmax and Km values are important for the optimization of the assay conditions and for setting the parameters for inhibition experiments. […] However, compounds Ib and Ic, contain the 4-trifluoromethyl group (R4) which shifts the fluorescent properties of these molecules to longer wavelengths.
(§2) Example Compound Ia. […] The substrate, compound Ia, was prepared in pH 7.4 potassium phosphate buffer (0.1 M). […] The final cofactor concentrations were 0.0082 mM NADP, 0.41 mM glucose-6-phosphate and 0.2 U/ml glucose-6-phosphate dehydrogenase. Final incubation volume was 0.2 ml. […] The activity was quantified by comparing to a standard curve of 3-[2-(N,N-diethylamino)ethyl]-7-hydroxy-4-methylcoumarin hydrochloride. Apparent Km and Vmax values were calculated by non-linear kinetics using SigmaPlot 4.0 software.
(§3) Example Compounds Ib and Ic. The following procedure applies to compounds Ib and Ic as substrates. […] The substrates, Ib and Ic, were prepared in acetonitrile. […] Final incubation volume was 0.2 ml. […] The enzyme activity was quantified by comparing to a standard curve of 3-[2-(N, N-diethyl-N-methylammonium)ethyl]-7-hydroxy-4-trifluoromethylcoumarin iodide (compound IIb) when assaying for metabolism of Ib or 3-[2-(diethylamino)ethyl]-7-hydroxy-4-trifluoromethyl coumarin (compound IIc) when assaying for metabolism of Ic. Apparent Km and Vmax values were calculated by non-linear kinetics using SigmaPlot 4.0 software.

CYP2D6 [6] = target: T1, CYP2D6; assay: CYP2D6 specificity in human liver microsomes with and without quinidine; format: biochemical; design: purchased GENTEST Corporation P217; host or cells: baculovirus/insect cell (SUPERSOMES); conditions: for pmole Product with quinidine: 5 uM quinidine; for pmole Product with quinidine / pmole Product: 5.0 uM compound I, 1.0 mg/ml HLM; for pmole Product: without quinidine
Experimental: Human liver microsomes (HLM) contain several drug (xenobiotic) metabolizing cytochromes P450. When HLM are used as an enzyme source, it is critical that the probe biotransformation be specifically catalyzed by the enzyme of interest.
After incubation, 100 ul of the reaction was added to 1.9 ml of 100 mM Tris (pH 9) and the fluorescence was determined with excitation at 390 nm and emission at 460 nm in a spectrofluorometer. The activity was quantitated by comparing to a standard curve of 3-[2-(diethylamino)ethyl]-7-hydroxy-4-methylcoumarin hydrochloride (Table III): […]

CYP2D6 [7] = conditions: Kupfer et al. 1984; cited from earlier work
[8] = substrate: CCN(CC)CCc1c(C(F)(F)F)c2ccc(OC)cc2oc1=O; assay: Enzyme kinetics with cDNA-expressed CYP2D6 (fluorometric); format: biochemical; conditions: cDNA-expressed human CYP2D6, 37° C., pH 7.4
Experimental: as §1, §2, §3

[9] = substrate: CC[N+](C)(CC)CCc1c(C(F)(F)F)c2ccc(OC)cc2oc1=O; assay: as above; format: biochemical; conditions: cDNA-expressed human CYP2D6, 37° C., pH 7.4
Experimental: as §1, §2, §3

[10] = substrate: CC[N+](C)(CC)CCc1c(C)c2ccc(OC)cc2oc1=O; assay: as above; format: biochemical; conditions: cDNA-expressed human CYP2D6, 37° C., pH 7.4
Experimental: as §1, §2, §3

[11] = substrate: CCOc1ccc2cc(C#N)c(=O)oc2c1; assay: as above; format: biochemical; conditions: cDNA-expressed human CYP2D6, 37° C., pH 7.4

## CCOc1ccc2cc(C#N)c(=O)oc2c1 [CEC, 3-cyano-7-ethoxycoumarin]
[1]
  metabolism by other human cytochromes P450: significantly metabolized by other human cytochromes P450
  specificity of substrate: poor specificity
CYP2D6 [2]
  enzymatic turnover: low enzymatic turnover

## NCCC(Oc1ccc(C(F)(F)F)cc1)c1ccccc1 (centres unmarked) [Norfluoxetine]
CYP2D6 [3]
  IC50: 8.4 µM and 1.1 µM

## CC[N+](C)(CC)CCc1c(C)c2ccc(OC)cc2oc1=O [Compound Ia, 3-[2-(N,N-diethyl-N-methylammonium)ethyl]-7-methoxy-4-methylcoumarin]
[4]
  catalytic selectivity for dealkylation: selective for CYP2D6
CYP2D6 [5]
  catalytic turnover: highest catalytic turnover
CYP2D6 [6]; 0 min
  pmole Product with quinidine: 0 pmol
  pmole Product: 0 pmol
CYP2D6 [6]; 5 min
  pmole Product with quinidine: 0 pmol
  pmole Product: 3.3 pmol
CYP2D6 [6]; 10 min
  pmole Product with quinidine: 0 pmol
  pmole Product: 6.3 pmol
CYP2D6 [6]; 15 min
  pmole Product with quinidine: -0.7 pmol
  pmole Product: 8.5 pmol
CYP2D6 [6]; human liver microsomes, quinidine inhibition
  measurable metabolism / CYP2D6 specificity: exclusively due to CYP2D6

## CCN(CC)CCc1c(C(F)(F)F)c2ccc(OC)cc2oc1=O [Compound Ic, 3-[2-(diethylamino)ethyl]-7-methoxy-4-trifluoromethylcoumarin]
[4]
  catalytic selectivity for dealkylation: also substrates for other human P450 enzymes
CYP2D6 [5]
  catalytic turnover: lower catalytic turnover compared to compound Ia

## CCc1cccc2cc(C(O)CNC(C)(C)C)oc12 (centres unmarked) [Bufuralol]
CYP2D6 [3]
  IC50: 27 µM and 17 µM and 23.3 µM and 104 µM

## N=C(N)N1CCc2ccccc2C1 [Debrisoquine]
CYP2D6 [3]
  IC50: 29 µM and 20 µM and 10.6 µM and 105 µM

## CC[N+](C)(CC)CCc1c(C(F)(F)F)c2ccc(OC)cc2oc1=O [Compound Ib, 3-[2-(N,N-diethyl-N-methylammonium)ethyl]-7-methoxy-4-trifluoromethylcoumarin iodide]
[4]
  catalytic selectivity for dealkylation: also substrates for other human P450 enzymes
CYP2D6 [5]
  catalytic turnover: lower catalytic turnover compared to compound Ia

## COc1ccc2c(c1)[C@]13CCCC[C@@H]1[C@H](C2)N(C)CC3 [Dextromethorphan]
CYP2D6 [7]
  metabolism by CYP2D6: O-demethylated by CYP2D6

B1: CYP2D6 (Homo sapiens) (protein)
chain: MGLEALVPLAVIVAIFLLLVDLMHRRQRWAARYPPGPLPLPGLGNLLHVDFQNTPYCFDQLRRRFGDVFSLQLAWTPVVVLNGLAAVREALVTHGEDTADRPPVPITQILGFGPRSQGVFLARYGPAWREQRRFSVSTLRNLGLGKKSLEQWVTEEAACLCAAFANHSGRPFRPNGLLDKAVSNVIASLTCGRRFEYDDPRFLRLLDLAQEGLKEESGFLREVLNAVPVLLHIPALAGKVLRFQKAFLTQLDELLTEHRMTWDPAQPPRDLTEAFLAEMEKAKGNPESSFNDENLRIVVADLFSAGMVTTSTTLAWGLLLMILHPDVQRRVQQEIDDVIGQVRRPEMGDQAHMPYTTAVIHEVQRFGDIVPLGVTHMTSRDIEVQGFRIPKGTTLITNLSSVLKDEAVWEKPFRFHPEHFLDAQGHFVKPEAFLPFSAGRRACLGEPLARMELFLFFTSLLQHFSFSVPTGQPRPSHHGVFAFLVSPSPYELCAVPR
notes: purchased GENTEST Corporation P217; host or cells: baculovirus/insect cell (SUPERSOMES)
[8]
  kcat: 0.2 min⁻¹
[8]; other: apparent Km
  Km: 3.3 µM
[9]
  kcat: 0.16 min⁻¹
[9]; other: apparent Km
  Km: 0.8 µM
[10]
  kcat: 1.0 min⁻¹
[11]
  kcat: 0.017 min⁻¹
[11]; other: apparent Km
  Km: 67 µM
